Experimental findings from article PMC9375364, “Fabrication of multifunctional metal–organic frameworks nanoparticles via layer-by-layer self-assembly to efficiently discover PSD95-nNOS uncouplers for stroke treatment” (Journal of Nanobiotechnology, 2022) are described below.

Read-outs that look alike come from different tables or passages of the source.

In the assay the target is T1, PSD95-nNOS (GFP-PSD95 coupled to His-nNOS on magnetic Fe-MOF) (Rattus norvegicus (nNOS); Homo sapiens (PSD95), UniProt P29476+P78352).
T1 construct: gene Nos1; two-species complex; myc-His-nNOS (pcDNA3.1) and GFP-PSD95-Flag (pcDNA3.1), total synthesized genes, expressed in HEK293T, from RIPA lysates; His-nNOS immobilized on magnetic Fe-MOF, then GFP-PSD95 coupled
T1 sequence (P29476 whole entry): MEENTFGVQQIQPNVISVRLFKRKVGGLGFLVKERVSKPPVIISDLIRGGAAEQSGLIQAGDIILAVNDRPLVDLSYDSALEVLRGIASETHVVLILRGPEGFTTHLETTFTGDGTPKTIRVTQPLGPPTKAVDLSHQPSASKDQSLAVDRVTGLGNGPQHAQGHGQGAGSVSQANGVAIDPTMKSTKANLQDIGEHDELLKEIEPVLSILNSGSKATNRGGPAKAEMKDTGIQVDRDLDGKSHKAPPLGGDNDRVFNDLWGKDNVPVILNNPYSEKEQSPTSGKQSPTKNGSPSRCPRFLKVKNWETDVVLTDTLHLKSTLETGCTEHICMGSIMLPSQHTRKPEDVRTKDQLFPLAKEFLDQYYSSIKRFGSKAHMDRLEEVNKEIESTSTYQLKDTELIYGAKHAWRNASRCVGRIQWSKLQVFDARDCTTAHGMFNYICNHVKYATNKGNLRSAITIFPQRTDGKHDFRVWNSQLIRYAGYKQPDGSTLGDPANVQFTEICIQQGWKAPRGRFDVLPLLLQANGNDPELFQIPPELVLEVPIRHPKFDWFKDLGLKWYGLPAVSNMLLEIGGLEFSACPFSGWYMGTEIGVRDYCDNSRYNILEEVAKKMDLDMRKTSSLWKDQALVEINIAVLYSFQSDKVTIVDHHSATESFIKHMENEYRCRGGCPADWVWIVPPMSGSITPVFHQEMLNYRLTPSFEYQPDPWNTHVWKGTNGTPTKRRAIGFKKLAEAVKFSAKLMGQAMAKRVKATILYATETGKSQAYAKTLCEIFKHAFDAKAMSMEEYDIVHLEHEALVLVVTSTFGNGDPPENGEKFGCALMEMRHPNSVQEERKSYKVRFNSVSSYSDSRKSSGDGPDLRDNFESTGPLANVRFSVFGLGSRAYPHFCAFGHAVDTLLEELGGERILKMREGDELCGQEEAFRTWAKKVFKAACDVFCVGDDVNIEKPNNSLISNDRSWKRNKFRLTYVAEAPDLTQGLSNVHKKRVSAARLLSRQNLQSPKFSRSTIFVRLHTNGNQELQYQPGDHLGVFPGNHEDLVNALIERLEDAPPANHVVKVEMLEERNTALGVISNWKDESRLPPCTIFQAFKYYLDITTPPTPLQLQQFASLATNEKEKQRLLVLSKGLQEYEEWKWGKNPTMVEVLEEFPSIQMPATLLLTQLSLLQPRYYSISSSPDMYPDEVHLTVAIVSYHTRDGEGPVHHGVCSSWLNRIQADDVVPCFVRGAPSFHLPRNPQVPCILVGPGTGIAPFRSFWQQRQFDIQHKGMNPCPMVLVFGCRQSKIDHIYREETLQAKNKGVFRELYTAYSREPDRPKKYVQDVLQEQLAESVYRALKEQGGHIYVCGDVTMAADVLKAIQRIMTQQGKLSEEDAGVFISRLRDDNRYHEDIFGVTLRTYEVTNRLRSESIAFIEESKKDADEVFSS
T1 sequence (P78352 whole entry): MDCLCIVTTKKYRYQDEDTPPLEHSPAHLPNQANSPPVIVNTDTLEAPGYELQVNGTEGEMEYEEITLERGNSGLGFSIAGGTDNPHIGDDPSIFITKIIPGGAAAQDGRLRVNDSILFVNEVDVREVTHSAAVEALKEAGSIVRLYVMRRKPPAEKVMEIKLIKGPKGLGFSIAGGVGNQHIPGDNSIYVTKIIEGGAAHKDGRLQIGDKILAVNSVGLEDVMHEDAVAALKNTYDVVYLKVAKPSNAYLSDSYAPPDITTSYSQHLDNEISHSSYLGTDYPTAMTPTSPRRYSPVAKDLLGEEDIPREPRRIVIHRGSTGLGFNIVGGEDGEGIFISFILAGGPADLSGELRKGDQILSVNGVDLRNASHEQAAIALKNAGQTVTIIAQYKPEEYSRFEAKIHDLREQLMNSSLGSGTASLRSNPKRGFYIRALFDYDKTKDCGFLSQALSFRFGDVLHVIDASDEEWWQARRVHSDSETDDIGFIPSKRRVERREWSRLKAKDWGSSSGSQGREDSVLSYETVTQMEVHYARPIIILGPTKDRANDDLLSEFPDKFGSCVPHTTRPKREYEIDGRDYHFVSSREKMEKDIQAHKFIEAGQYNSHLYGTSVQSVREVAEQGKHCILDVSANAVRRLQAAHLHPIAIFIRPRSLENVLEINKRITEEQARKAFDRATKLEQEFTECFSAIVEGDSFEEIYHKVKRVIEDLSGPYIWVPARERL
Kind of assay: uncoupling of GFP-PSD95 from His-nNOS/Fe-MOF, magnetic separation, fluorescence. The assay is classed as binding. The text has this: uncoupling of GFP-PSD95 from His-nNOS/Fe-MOF, magnetic separation, fluorescence on PSD95-nNOS (GFP-PSD95 coupled to His-nNOS on magnetic Fe-MOF)

Take `COc1cc(O)c2c(c1)C(=O)c1cc(C)cc(O)c1C2=O` [compound 9, Physcion]: the IC50 (commonly the midpoint of a concentration-inhibition curve) is > 1800 µM.
The compound `O=c1cc(-c2ccccc2)oc2cc(O)c(O)c(O)c12` [compound 2, Baicalein] returned a half-inhibitory concentration (IC50) of 144 ± 22 µM.
On the same count and under the same terms, as for `O=C(O)[C@H]1O[C@@H](Oc2cc3oc(-c4ccccc4)cc(=O)c3c(O)c2O)[C@H](O)[C@@H](O)[C@@H]1O` [compound 1, Baicalin], the figure is 104 ± 1 µM; as for `COc1ccc2c(c[n+](C)c3c4cc5c(cc4ccc23)OCO5)c1OC` [compound 8, Chelerythrine], > 1800 µM.
`Oc1cc(O)cc(/C=C/c2c(O)cccc2O)c1` [compound 3, Gnetol]: the IC50 (PBS pH 7.4, 0.1% DMSO, 4 °C, 5 h, immobilized nNOS, inhibition of PSD95-nNOS coupling, binding chain not told) worked out at 492 ± 63 µM.
On to `COc1cc(/C=C/c2cc(O)cc(O)c2)ccc1O` [compound 6, Isorhapontigenin], for which the half-inhibitory concentration (IC50) was > 1800 µM.
The same measure, in the same setting: as for `O=C(O)c1ccc(NCc2cc(Cl)cc(Cl)c2O)cc1O` [ZL006, 4-(3,5-Dichloro-2-hydroxy-benzylamino)-2-hydroxybenzoic acid, reference compound], the figure is 1800 ± 151 µM.
On the same count and under the same terms, as for `COc1cc2c[n+](C)c3c4cc5c(cc4ccc3c2cc1OC)OCO5` [compound 7, Nitidine chloride], the figure is > 1800 µM.
